# Assay results reported in paper PMC11613273, “High-Affinity Peptides for Target Protein Screened in Ultralarge Virtual Libraries” (ACS Central Science, 2024).
# Where no end group is shown, it is not given here.
# Assays:
# AFP = molecular target: T1, AFP (Homo sapiens, UniProt P02771); assay: BLI analysis, steady-state; type: binding; conditions: for Kd: BLI Octet Red96, biotinylated target on SSA sensors, peptide 3.125 to 200 nM, 25°C, kinetics buffer (10 mM PBS, 0.1% BSA, 0.05% Tween-20), steady-state fit, 1:1 model; for Rmax: maximum steady-state BLI response signal from fit
# T1 construct: purchased Sino Biological Co., LTD; (Beijing)
# T1 sequence (P02771 19-609): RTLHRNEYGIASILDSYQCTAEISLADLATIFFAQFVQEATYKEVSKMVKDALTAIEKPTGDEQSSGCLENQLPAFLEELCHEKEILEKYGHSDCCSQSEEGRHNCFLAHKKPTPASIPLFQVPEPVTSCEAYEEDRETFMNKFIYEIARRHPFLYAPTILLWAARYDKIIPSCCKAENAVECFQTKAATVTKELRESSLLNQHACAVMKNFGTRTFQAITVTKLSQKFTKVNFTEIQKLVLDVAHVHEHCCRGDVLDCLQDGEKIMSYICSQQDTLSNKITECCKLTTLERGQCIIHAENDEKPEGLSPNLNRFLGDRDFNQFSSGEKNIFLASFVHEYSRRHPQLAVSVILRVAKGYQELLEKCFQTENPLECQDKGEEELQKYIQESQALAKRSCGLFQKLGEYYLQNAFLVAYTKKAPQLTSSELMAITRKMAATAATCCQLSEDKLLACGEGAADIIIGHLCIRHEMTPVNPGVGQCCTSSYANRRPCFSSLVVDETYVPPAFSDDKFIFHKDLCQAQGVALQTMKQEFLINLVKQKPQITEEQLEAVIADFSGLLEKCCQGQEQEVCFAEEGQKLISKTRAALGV
# SARS-CoV-2 RBD = SARS-CoV-2 RBD (Severe acute respiratory syndrome coronavirus 2, UniProt P0DTC2); type: binding; conditions: maximum steady-state BLI response signal from fit
# Noro P-domain = Noro P-domain (Norovirus Hu/GII.4/Sydney/NSW0514/2012/AU, UniProt K4LM89); assay: BLI analysis, steady-state; type: binding, Norovirus GII.4; conditions: maximum steady-state BLI response signal from fit
Sequence,Kd (AFP),Rmax (AFP),Rmax (SARS-CoV-2 RBD),Rmax (Noro P-domain)
WWALEHYPPPYMQIW [Pep-6973],69.3 ± 14.4 nM,0.2449±0.0216 nm,,
CPPPFPGRPPPWPPF [Pep-1927],,,0.1296±0.0076 nm,
WWWWWPHHDWKLVWC [Pep-7937],40.6 ± 7.31 nM,0.0945±0.0061 nm,,
FPPPPPHPWPPPPWA [Pep-21],,,,0.7092±0.0344 nm
CPPPAPQFPFPWPPW [Pep-2458],,,0.2149±0.0080 nm,
CPPPPPYYKPPGHPP [Pep-6626],,,0.1940±0.0063 nm,
FFGPPPWPPPPPPWY [Pep-3076],,,,0.4267±0.0208 nm
PIWWYHAEKPEHWPI [Pep-5890],74.8 ± 11 nM,0.2242±0.0144 nm,,
FPPPPWWDWPPPPWW [Pep-595],,,,0.4957±0.0130 nm
